Read-outs that look alike come from different tables or passages of the source.
Experiments:
[1] = human
[2] = human, cited from earlier work
plasma protein = details: cited from earlier work; for fp_Human (free fraction in plasma): human, collected value, ref: Table S1
[3] = human, cited from earlier work; for Rb_Human: blood-to-plasma concentration ratio, median if multiple values reported, Reference of Table S1
[4] = human, intravenous, cited from earlier work
[5] = intravenous, median if multiple values reported, Reference of Table S1
[6] = free fraction in human plasma, median if multiple values reported, Reference of Table S1
[7] = median if multiple values reported, Reference of Table S1
[8] = median if multiple values were reported
[9] = median if multiple values were reported, ref numbers in Table S1

In the case of `CCOc1ccc(NC(C)=O)cc1` [Phenacetin], the “in vivo MRT_(hr)_Human” value [1] is listed as 1.111 h, the “in vivo Vd_(L/kg)_Human” value [2, 5] is listed as 1.400 L/kg and the fp_Human (plasma protein; [6]) is listed as 0.470. For the same molecule, the Rb_Human [3] was 1.01.

In the case of `CC(C)NCC(O)COc1cccc2[nH]ccc12` (stereo not shown) [Pindolol], the “in vivo MRT_(hr)_Human” value [1] is listed as 2.597 h, the “in vivo Vd_(L/kg)_Human” value [2, 5] is listed as 1.200 L/kg and the fp_Human (plasma protein; [6]) is listed as 0.580. The Rb_Human [3] was 0.69.

For `CNC(=C[N+](=O)[O-])NCCSCc1ccc(CN(C)C)o1` [Ranitidine], the “in vivo MRT_(hr)_Human” value [1] is listed as 2.083 h, the “in vivo Vd_(L/kg)_Human” value [2, 5] is listed as 1.200 L/kg and the fp_Human (plasma protein; [6]) is listed as 0.900. The Rb_Human [3] was 1.00.

For `CC(C)NCC(O)c1ccc(NS(C)(=O)=O)cc1` (stereo not shown) [Sotalol], the “in vivo MRT_(hr)_Human” value [1] is given as 10.833 h, the “in vivo Vd_(L/kg)_Human” value [2, 5] is given as 1.300 L/kg and the fp_Human (plasma protein; [6]) is given as 0.810. For the same molecule, the Rb_Human [3] was 1.07.

For `CCOc1ccccc1OCCN[C@H](C)Cc1ccc(OC)c(S(N)(=O)=O)c1` [Tamsulosin], the “in vivo Vd_(L/kg)_Human” value [2, 5] is given as 0.210 L/kg, the fp_Human (plasma protein; [6]) is given as 0.010 and the Rb_Human [3] is given as 0.55. The “in vivo CL_(L/hr/kg)_Human” value [4, 7] was 0.037 L/h/kg.

For `CCCCCNC(=N)N/N=C/c1c[nH]c2ccc(OC)cc12` [Tegaserod], the “in vivo Vd_(L/kg)_Human” value [2, 5] is given as 5.300 L/kg, the fp_Human (plasma protein; [6]) is given as 0.020 and the Rb_Human [3] is given as 0.72. The “in vivo CL_(L/hr/kg)_Human” value [4, 7] was 1.080 L/h/kg.

For `CCCc1nc2c(C)cc(-c3nc4ccccc4n3C)cc2n1Cc1ccc(-c2ccccc2C(=O)O)cc1` [Telmisartan], the “in vivo Vd_(L/kg)_Human” value [2, 5] is listed as 6.295 L/kg, the fp_Human (plasma protein; [6]) is listed as 0.004 and the Rb_Human [3] is listed as 1.22. For the same molecule, the “in vivo CL_(L/hr/kg)_Human” value [4, 7] was 0.504 L/h/kg.

For `C[C@H](Cn1cnc2c(N)ncnc21)OCP(=O)(O)O` [Tenofovir], the “in vivo Vd_(L/kg)_Human” value [2, 5] is given as 0.830 L/kg, the fp_Human (plasma protein; [6]) is given as 0.930 and the Rb_Human [3] is given as 1.05. The “in vivo CL_(L/hr/kg)_Human” value [4, 7] was 0.186 L/h/kg.

For `COc1ccccc1Oc1c(NS(=O)(=O)c2ccc(C(C)C)cn2)nc(-c2ccnc(-c3nnn[nH]3)c2)nc1OCCO` [Tezosentan], the “in vivo Vd_(L/kg)_Human” value [2, 5] is listed as 0.280 L/kg, the fp_Human (plasma protein; [6]) is listed as 0.0085 and the Rb_Human [3] is listed as 0.60. For the same molecule, the “in vivo CL_(L/hr/kg)_Human” value [4, 7] was 0.486 L/h/kg.

In the case of `CC(C)(C)NC[C@H](O)COc1nsnc1N1CCOCC1` [Timolol], the “in vivo Vd_(L/kg)_Human” value [2, 5] is given as 1.500 L/kg, the fp_Human (plasma protein; [6]) is given as 0.491 and the Rb_Human [3] is given as 0.84. The “in vivo CL_(L/hr/kg)_Human” value [4, 7] was 0.462 L/h/kg.

In the case of `Nc1nc(N)c2nc(-c3ccccc3)c(N)nc2n1` [Triamterene], the “in vivo Vd_(L/kg)_Human” value [2, 5] is listed as 13.000 L/kg, the fp_Human (plasma protein; [6]) is listed as 0.420 and the Rb_Human [3] is listed as 1.03. The “in vivo CL_(L/hr/kg)_Human” value [4, 7] was 3.780 L/h/kg.

For `COc1cc(Cc2cnc(N)nc2N)cc(OC)c1OC` [Trimethoprim], the “in vivo MRT_(hr)_Human” value [1] is given as 11.905 h, the “in vivo Vd_(L/kg)_Human” value [2, 5] is given as 1.500 L/kg and the fp_Human (plasma protein; [6]) is given as 0.500. For the same molecule, the Rb_Human [3] was 1.03.

In the case of `Cc1c(C)c2c(c(C)c1O)CCC(C)(COc1ccc(CC3SC(=O)NC3=O)cc1)O2` (stereo not shown) [Troglitazone], the “in vivo Vd_(L/kg)_Human” value [2, 5] is listed as 0.710 L/kg, the fp_Human (plasma protein; [6]) is listed as 0.00347 and the Rb_Human [3] is listed as 0.55. For the same molecule, the “in vivo CL_(L/hr/kg)_Human” value [4, 7] was 0.210 L/h/kg.

For `CCCC(CCC)C(=O)O` [Valproic Acid], the “in vivo Vd_(L/kg)_Human” value [2, 5] is listed as 0.145 L/kg, the fp_Human (plasma protein; [6]) is listed as 0.091 and the Rb_Human [3] is listed as 0.64. The “in vivo CL_(L/hr/kg)_Human” value [4, 7] was 0.008 L/h/kg.

In the case of `O=C1Cc2cc(CCN3CCN(c4nsc5ccccc45)CC3)c(Cl)cc2N1` [Ziprasidone], the “in vivo Vd_(L/kg)_Human” value [2, 5] is listed as 1.000 L/kg, the fp_Human (plasma protein; [6]) is listed as 0.0012 and the Rb_Human [3] is listed as 0.81. For the same molecule, the “in vivo CL_(L/hr/kg)_Human” value [4, 7] was 0.504 L/h/kg.

For `O=P(O)(O)C(O)(Cn1ccnc1)P(=O)(O)O` [Zoledronic Acid], the “in vivo Vd_(L/kg)_Human” value [2, 5] is given as 0.600 L/kg, the fp_Human (plasma protein; [6]) is given as 0.780 and the Rb_Human [3] is given as 0.59. For the same molecule, the “in vivo CL_(L/hr/kg)_Human” value [4, 7] was 0.132 L/h/kg.

For `Oc1ccc2c(c1)[C@@]13CCCC[C@@]1(O)[C@@H](C2)N(CC1CCC1)CC3` [butorphanol, reference compound], the “in vivo Vd_(L/kg)_Human” value ([2]; in vivo, iv) is listed as 12.000 L/kg, the “fp_Human (free fraction in plasma)” value (plasma protein; [8]) is listed as 0.170 and the “Rb_Human (blood-to-plasma concentration ratio)” value [3] is listed as 1.90. For the same molecule, the “in vivo CL_(L/hr/kg)_Human” value [4, 9] was 2.460 L/h/kg.

In the case of Isosorbide mononitrate, the “in vivo Vd_(L/kg)_Human” value ([2]; in vivo, iv) is given as 0.600 L/kg, the fp_Human (plasma protein; human plasma free fraction, median if multiple values were reported, ref numbers in Table S1) is given as 0.850 and the “fp_Human (free fraction in plasma)” value (plasma protein; [8]) is given as 0.850. For the same molecule, the “Rb_Human (blood-to-plasma concentration ratio)” value [3] was 1.00 and the “in vivo CL_(L/hr/kg)_Human” value [4, 9] was 0.102 L/h/kg.
